Measurements from patent US8530487B1 (priority 2009, dated 2013).
pIC50: −log10 of the molar value. Read-outs that look alike come from different tables or passages of the source.

Target: human TRPA1 (Homo sapiens, UniProt O75762)
Experiment: cell-based

human TRPA1, sequence (O75762 whole entry): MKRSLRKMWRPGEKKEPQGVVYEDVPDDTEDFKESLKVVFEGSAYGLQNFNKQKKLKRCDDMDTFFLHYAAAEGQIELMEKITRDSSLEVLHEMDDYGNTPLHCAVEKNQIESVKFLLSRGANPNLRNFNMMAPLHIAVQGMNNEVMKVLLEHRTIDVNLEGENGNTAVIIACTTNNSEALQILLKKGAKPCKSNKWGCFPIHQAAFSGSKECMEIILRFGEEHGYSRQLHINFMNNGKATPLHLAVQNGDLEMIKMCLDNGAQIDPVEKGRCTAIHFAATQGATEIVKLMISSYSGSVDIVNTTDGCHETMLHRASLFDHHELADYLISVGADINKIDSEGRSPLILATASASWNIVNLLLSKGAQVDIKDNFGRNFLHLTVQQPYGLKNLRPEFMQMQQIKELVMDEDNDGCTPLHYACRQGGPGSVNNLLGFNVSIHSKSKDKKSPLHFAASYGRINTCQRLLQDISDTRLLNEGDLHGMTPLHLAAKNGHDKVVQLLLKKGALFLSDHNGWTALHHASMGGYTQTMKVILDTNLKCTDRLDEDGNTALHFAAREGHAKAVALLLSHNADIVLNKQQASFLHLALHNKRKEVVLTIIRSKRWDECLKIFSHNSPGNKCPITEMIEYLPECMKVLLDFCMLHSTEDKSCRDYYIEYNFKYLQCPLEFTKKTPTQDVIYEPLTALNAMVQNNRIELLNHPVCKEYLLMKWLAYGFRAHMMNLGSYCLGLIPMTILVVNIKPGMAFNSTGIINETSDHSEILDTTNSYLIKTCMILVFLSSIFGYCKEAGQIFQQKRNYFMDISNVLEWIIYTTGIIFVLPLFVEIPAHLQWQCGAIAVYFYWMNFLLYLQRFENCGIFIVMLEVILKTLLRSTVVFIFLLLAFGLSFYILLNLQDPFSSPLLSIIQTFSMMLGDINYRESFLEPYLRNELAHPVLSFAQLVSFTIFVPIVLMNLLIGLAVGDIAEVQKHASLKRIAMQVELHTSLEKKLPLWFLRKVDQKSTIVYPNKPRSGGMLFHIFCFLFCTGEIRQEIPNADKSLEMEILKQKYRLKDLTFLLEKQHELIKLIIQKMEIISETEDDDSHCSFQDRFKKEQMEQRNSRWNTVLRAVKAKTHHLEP

Compound	pIC50 (read-out: Activity (IC50))	pIC50
N#CN=C1NC2=C(C(=O)c3ccccc32)C(c2ccccc2)N1 (stereo not shown) [Compound 956]	< 6.00	
C=CCOc1cccc(C2NC(=O)N(C)C3=C2C(=O)c2ccccc23)c1 (stereo not shown) [Compound 629]	> 7.00	
C=CCOc1ccc(Cl)c(C2NC(=O)NC3=C2C(=O)c2ccccc23)c1 (stereo not shown) [Compound 637]	6.30 to 7.00	
C=CCOc1ccc(F)c(C2NC(=O)NC3=C2C(=O)c2ccccc23)c1 (stereo not shown) [Compound 417]	6.30 to 7.00	
COc1cccc(C2NC(=O)NC3=C2C(=O)c2ccccc23)c1 (stereo not shown) [Compound 621]		6.00 to 6.30
O=C1NC2=C(C(=O)c3ccccc32)C(c2cc(C(F)(F)F)ccc2Cl)N1 (stereo not shown) [Compound 448]	< 6.00	
C=CCOc1cccc(C2NC(=O)N(Cc3ccc(F)cc3)C3=C2C(=O)c2ccccc23)c1 (stereo not shown) [Compound 633]	> 7.00	
C=CCOc1cccc(C2NC(=O)NC3=C2C(=O)c2ccccc23)c1C (stereo not shown) [Compound 421]	6.30 to 7.00	
O=C1NC2=C(C(=O)c3cc(O)ccc32)C(c2cc(O)ccc2Br)N1 (stereo not shown) [Compound 105]	< 6.00	
CCCCCOc1cccc(C2NC(=O)NC3=C2C(=O)c2ccccc23)c1 (stereo not shown) [Compound 460]	< 6.00	
COc1cccc(C2NC(=O)N(CCN(C)C)C3=C2C(=O)c2ccccc23)c1 (stereo not shown) [Compound 628]	< 6.00	
CCCOc1cccc(C2NC(=O)N(CC)C3=C2C(=O)c2ccccc23)c1 (stereo not shown) [Compound 646]	> 7.00	
CN1C(=NC#N)NC2=C(C(=O)c3ccccc32)C1c1cccc(OCC2CC2)c1 (stereo not shown) [Compound 952]	< 6.00	
CCC[S+]([O-])c1cccc(C2NC(=O)NC3=C2C(=O)c2cccnc23)c1 (stereo not shown) [Compound 910]	< 6.00	
CCOc1cccc(C2NC(=O)NC3=C2C(=O)c2ccccc23)c1Cl (stereo not shown) [Compound 423]	6.00 to 6.30	
O=C1NC2=C(C(=O)c3ccccc32)C(c2cccc(Cl)c2)N1 (stereo not shown) [Compound 431]	< 6.00	
CN1C(=S)NC(c2ccccc2)C2=C1c1ccccc1C2=O (stereo not shown) [Compound 302]	> 7.00	
O=C1NC2=C(C(=O)c3ccc(O)cc32)C(c2cc(O)ccc2Br)N1 (stereo not shown) [Compound 106]	< 6.00	
O=C1NC2=C(C(=O)c3ccccc32)C(c2cccc(Cl)c2Cl)N1 (stereo not shown) [Compound 446]	< 6.00	
COCc1cccc(C2NC(=O)NC3=C2C(=O)c2ccccc23)c1 (stereo not shown) [Compound 453]	< 6.00	
CCCOc1ccc(F)c(C2NC(=O)N(CC#N)C3=C2C(=O)c2ccccc23)c1F (stereo not shown) [Compound 648]	> 7.00	
COc1ccc(Br)c(C2NC(=O)NC3=C2C(=O)c2ccccc23)c1 (stereo not shown) [Compound 433]	< 6.00	
C=CCOc1cccc(C2NC(=O)NC3=C2C(=O)c2ccccc23)c1C(F)(F)F (stereo not shown) [Compound 454]	< 6.00	

Compound	pIC50 (read-out: Activity (IC50))	pIC50
CCOc1cccc(C2NC(=O)NC3=C2C(=O)c2ccccc23)c1 (stereo not shown) [Compound 602]	6.30 to 7.00	
C=CCOc1cccc(C2NC(=NC#N)NC3=C2C(=O)c2ccccc23)c1 (stereo not shown) [Compound 950]	< 6.00	
COc1ccc(Cl)c(C2NC(=O)NC3=C2C(=O)c2ccccc23)c1 (stereo not shown) [Compound 429]	< 6.00	
CCOc1cccc(C2NC(=O)N(Cc3ccccc3)C3=C2C(=O)c2ccccc23)c1 (stereo not shown) [Compound 606]	> 7.00	
CCN(C(C)=O)c1cccc(C2NC(=O)NC3=C2C(=O)c2ccccc23)c1 (stereo not shown) [Compound 443]	< 6.00	
CCOc1cccc(C2NC(=O)NC3=C2C(=O)c2cccnc23)c1F (stereo not shown) [Compound 901]	6.30 to 7.00	
CCCC(=O)c1cccc(C2NC(=O)NC3=C2C(=O)c2cccnc23)c1 (stereo not shown) [Compound 909]	6.30 to 7.00	
O=C1NC2=C(C(=O)c3ccccc32)C(c2cccc(O)c2)N1 (stereo not shown) [Compound 436]	< 6.00	
COc1cccc(C2NC(=O)NC3=C2C(=O)c2ccccc23)c1OC (stereo not shown) [Compound 438]	< 6.00	
COc1cc(OC)cc(C2NC(=O)NC3=C2C(=O)c2ccccc23)c1 (stereo not shown) [Compound 458]	< 6.00	
O=C1C2=C(NC(=S)NC2c2cccnc2)c2ccccc21 (stereo not shown) [Compound 33]		6.00 to 6.30
O=C1NC2=C(C(=O)c3ccccc32)C(c2cccc(OC(=O)C3CC3)c2)N1 (stereo not shown) [Compound 459]	< 6.00	
O=C1C2=C(c3ccccc31)N(Cc1ccccc1)C(=O)NC2c1cccc(OC(F)F)c1 (stereo not shown) [Compound 620]	> 7.00	
COc1cccc(C2NC(=O)N(Cc3ccccc3)C3=C2C(=O)c2ccccc23)c1 (stereo not shown) [Compound 625]	6.30 to 7.00	
CCCOc1cccc(C2NC(=NC#N)NC3=C2C(=O)c2ccccc23)c1 (stereo not shown) [Compound 960]	< 6.00	
CCCOc1cccc(C2NC(=O)N(CC#N)C3=C2C(=O)c2ccccc23)c1 (stereo not shown) [Compound 615]	> 7.00	
O=C1NC2=C(C(=O)c3ccccc32)C(c2cc(O)ccc2Br)N1 (stereo not shown) [Compound 102]	6.30 to 7.00	
C=CCOc1cccc(C2NC(=O)N(Cc3ccccc3)C3=C2C(=O)c2ccccc23)c1 (stereo not shown) [Compound 632]	> 7.00	
Cc1ccc2c(c1)C(=O)C1=C2NC(=O)NC1c1cc(O)ccc1Br (stereo not shown) [Compound 107]	6.00 to 6.30	
O=C1NC2=C(C(=O)c3c(O)cccc32)C(c2cc(O)ccc2Br)N1 (stereo not shown) [Compound 104]	< 6.00	
CCOc1cccc(C2NC(=O)NC3=C2C(=O)c2cccnc23)c1 (stereo not shown) [Compound 902]	6.30 to 7.00	
CCOc1cccc(C2NC(=S)NC3=C2C(=O)c2ccccc23)c1 (stereo not shown) [Compound 310]	> 7.00	

Further lines, with some results ahead:

pIC50 (read-out: Activity (IC50))	Compound	pIC50
< 6.00	CN1C(=S)NC2=C(C(=O)c3ccccc32)C1c1cccc(C#N)c1 (stereo not shown) [Compound 309]	
6.30 to 7.00	CCN1C(=O)NC(c2cccc(OC(F)F)c2)C2=C1c1ccccc1C2=O (stereo not shown) [Compound 619]	
< 6.00	CCOc1cncc(C2NC(=O)NC3=C2C(=O)c2ccccc23)c1 (stereo not shown) [Compound 503]	
6.30 to 7.00	CCCC(O)c1cccc(C2NC(=O)NC3=C2C(=O)c2cccnc23)c1 (stereo not shown) [Compound 908]	
> 7.00	C=CCOc1cccc(C2NC(=O)N(CC(=O)OCC)C3=C2C(=O)c2ccccc23)c1 (stereo not shown) [Compound 631]	
6.00 to 6.30	CCOc1cccc(C2NC(=O)NC3=C2C(=O)c2ccccc23)n1 (stereo not shown) [Compound 504]	
< 6.00	O=C1NC2=C(C(=O)c3ccccc32)C(c2cccc(OCC3CCC3)c2)N1 (stereo not shown) [Compound 461]	
6.30 to 7.00	C=CCN1C(=O)NC(c2cccc(OCC)c2)C2=C1c1ccccc1C2=O (stereo not shown) [Compound 614]	
> 7.00	C=CCC(F)c1cccc(C2NC(=O)NC3=C2C(=O)c2ccccc23)c1 (stereo not shown) [Compound 402]	
6.30 to 7.00	C=CCOc1ccc(Cl)c(C2NC(=O)NC3=C2C(=O)c2ccccc23)c1 (stereo not shown) [Compound 415]	
> 7.00	CCOc1cccc(C2NC(=O)NC3=C2C(=O)c2ccccc23)c1F (stereo not shown) [Compound 616]	
< 6.00	O=C1NC2=C(C(=O)c3ccccc32)C(c2ccc(Cl)cc2)N1 (stereo not shown) [Compound 442]	
> 7.00	CCCOc1cccc(C2NC(=O)NC3=C2C(=O)c2ccccc23)c1 (stereo not shown) [Compound 407]	
6.30 to 7.00	COCCN1C(=O)NC(c2cccc(OC)c2)C2=C1c1ccccc1C2=O (stereo not shown) [Compound 627]	
> 7.00	CCCOc1cccc(C2NC(=O)NC3=C2C(=O)c2cccnc23)c1 (stereo not shown) [Compound 904]	
> 7.00	C=CCOc1cccc(C2NC(=O)NC3=C2C(=O)c2ccccc23)c1F (stereo not shown) [Compound 401]	
> 7.00	CCCC(F)c1cccc(C2NC(=O)NC3=C2C(=O)c2cccnc23)c1 (stereo not shown) [Compound 907]	

pIC50 (read-out: Activity (IC50))	Compound	pIC50
< 6.00	O=C1NC2=C(C(=O)c3ccccc32)C(c2ccccc2O)N1 (stereo not shown) [Compound 435]	
> 7.00	CCCOc1cccc(C2NC(=O)N(C)C3=C2C(=O)c2ccccc23)c1 (stereo not shown) [Compound 645]	
6.30 to 7.00	COCCOc1cccc(C2NC(=O)NC3=C2C(=O)c2ccccc23)c1 (stereo not shown) [Compound 462]	
> 7.00	C=CCC(F)c1cccc(C2NC(=O)NC3=C2C(=O)c2cccnc23)c1 (stereo not shown) [Compound 905]	
6.30 to 7.00	CCOc1cccc(C2NC(=O)N(Cc3ccc(F)cc3)C3=C2C(=O)c2ccccc23)c1 (stereo not shown) [Compound 607]	
< 6.00	C=CCOc1cccc(C2NC(=O)N(Cc3ccncc3)C3=C2C(=O)c2ccccc23)c1 (stereo not shown) [Compound 635]	
< 6.00	O=C1NC2=C(C(=O)c3ccccc32)C(c2ccccc2F)N1 (stereo not shown) [Compound 447]	
> 7.00	N#Cc1cccc(C2NC(=S)NC3=C2C(=O)c2ccccc23)c1 (stereo not shown) [Compound 307]	
< 6.00	N#CN=C1NC2=C(C(=O)c3ccccc32)C(c2cccc(OCC3CCC3)c2)N1 (stereo not shown) [Compound 958]	
< 6.00	O=C1NC2=C(C(=O)c3ccccc32)C(c2cccc(OC(F)(F)C(F)F)c2)N1 (stereo not shown) [Compound 451]	
< 6.00	O=C1NC2=C(C(=O)c3ccccc32)C(c2cccnc2)N1 (stereo not shown) [Compound 501]	
> 7.00	C=CCOc1ccc(Cl)c(C2NC(=O)N(C)C3=C2C(=O)c2ccccc23)c1 (stereo not shown) [Compound 638]	
< 6.00	O=C1NC2=C(C(=O)c3ccccc32)C(c2cccc(C(F)(F)F)c2)N1 (stereo not shown) [Compound 452]	
> 7.00	C=CCOc1cccc(C2NC(=O)NC3=C2C(=O)c2ccccc23)c1Cl (stereo not shown) [Compound 411]	
< 6.00	COc1ccc(F)c(C2NC(=O)NC3=C2C(=O)c2ccccc23)c1 (stereo not shown) [Compound 432]	
6.00 to 6.30	CCOc1cccc(C2NC(=O)N(CC(F)(F)F)C3=C2C(=O)c2ccccc23)c1 (stereo not shown) [Compound 605]	
< 6.00	CCOc1cccc(C2NC(=O)N(Cc3ccccn3)C3=C2C(=O)c2ccccc23)c1 (stereo not shown) [Compound 611]	
